# According to patent US6914045B2, “Glycopeptide antibiotics” (Wyeth Holdings Corporation, priority 2001, dated 2005):
# Like-named read-outs stand apart in the source and are kept apart here.
# Columns and labels:
# [1] = test system: Staphylococcus aureus-SMITH (GC 4543); assay: acute lethal infection in mice; format: in vivo; conditions: Staphylococcus, read-out: median effective dose (ED50), Staphylococcus aureus-SMITH (GC 4543)
# Summary of the method: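 Female CD-1 mice (20±2 g) got an intraperitoneal bacterial challenge lethal to untreated controls within 24–48 hr. Compound was dosed intravenously 30 min after infection, five mice per dose. ED50 was calculated from 7-day survival pooled across 3 tests.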
# Escherichia coli = assay: in vitro antibacterial evaluation, MIC by broth dilution; format: cell-based; conditions: 18 hours at 35° C.
# Summary of the method: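 Broth dilution per NCCLS standard M7-A2 in Muller-Hinton II […], with an inoculum of 5×10^5 CFU/mL and antibiotic spanning 64-0.06 μg/mL. The MIC is the lowest concentration that inhibits growth of the organism.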
# Enterococcus sp. = assay: as above; format: cell-based; conditions: broth dilution, 18 hours at 35° C.
# Summary of the method: (§1)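 Step 1: dilute antibiotic across 64-0.06 μg/mL in Muller-Hinton II […]. Step 2: inoculate at 5×10^5 CFU/mL.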
# Staphylococcus sp. = assay: as above; format: cell-based; conditions: broth dilution, 18 hours at 35° C.
# Summary of the method: as §1
# Streptococcus sp. = assay: as above; format: cell-based; conditions: broth dilution, 18 hours at 35° C.
# Summary of the method: as §1
# [2] = test system: Gram-positive bacteria comprised of Staphylococcus sp., Streptococcus sp. and Enterococcus sp.; assay: in vitro antibacterial evaluation, MIC by broth dilution (strain not given); format: cell-based
# Protocol: Methods for in vitro Antibacterial Evaluation (Table 1)
# The minimum inhibitory concentration (MIC), the lowest concentration of the antibiotic which inhibits growth of the test organism, is determined by the broth dilution method using Muller-Hinton II […] (Baltimore Biological Laboratories) following the recommendations of the National Committee for Clinical Laboratory Standards [Methods for dilution antimicrobial susceptibility tests for bacteria that grow aerobically, approved standard M7-A2, National Committee for Clinical Laboratory Standards, Villanova, Pa.].
# An inoculum level of 5×10^5 CFU/mL, and a range of antibiotic concentrations (64-0.06 μg/mL) is used. […] The test organisms include a spectrum of Gram-positive bacteria comprised of Staphylococcus sp., Streptococcus sp. and Enterococcus sp. These organisms include recent clinical isolates that are resistant to methicillin, penicillin and/or vancomycin.
structure (smiles),measurement,setting,value
"CC(c1ccccc1)[C@@H]1NC(=O)CNC(=O)[C@H](CO)NC(=O)[C@H](C(O)C2CNC(=N)N2)NC(=O)[C@H](C(O)C2CNC(=N)N2)NC(=O)[C@H](Cc2ccc(O)cc2)NC1=O (stereo partly drawn) [Example 280b, Cyclo[glycyl-β-methylphenylalanyltyrosyl-3-(2-iminoimidazolidin-4-yl)seryl-3-(2-iminoimidazolidin-4-yl)serylseryl]]",ED50,[1],> 8 mg/kg
same,MIC,"Escherichia coli; ATCC25922, Escherichia coli (ATCC 25922), read-out: MIC, Escherichia coli (ATCC 25922)",32 µg/mL
same,MIC,"Escherichia coli; Escherichia coli (GC 4559), read-out: MIC, Escherichia coli (GC 4559)",16 µg/mL
same,MIC,"Escherichia coli; Escherichia coli (GC 4560), read-out: MIC, Escherichia coli (GC 4560)",32 µg/mL
same,MIC,"Enterococcus sp.; Enterococcus avium (GC 4558), read-out: MIC, Enterococcus avium (GC 4558)",128 µg/mL
same,MIC,"Enterococcus sp.; Enterococcus faecalis (ATCC 29212), read-out: MIC, Enterococcus faecalis (ATCC 29212)",> 128 µg/mL
same,MIC,"Enterococcus sp.; Enterococcus faecalis (GC 4553), read-out: MIC, Enterococcus faecalis (GC 4553)",> 128 µg/mL
same,MIC,"Enterococcus sp.; Enterococcus faecalis (GC 4554), read-out: MIC, Enterococcus faecalis (GC 4554)",> 128 µg/mL
same,MIC,"Enterococcus sp.; Enterococcus faecalis (GC 6189), read-out: MIC, Enterococcus faecalis (GC 6189)",> 128 µg/mL
same,MIC,"Enterococcus sp.; Enterococcus faecium (GC 2243), read-out: MIC, Enterococcus faecium (GC 2243)",128 µg/mL
same,MIC,"Enterococcus sp.; Enterococcus faecium (GC 4556), read-out: MIC, Enterococcus faecium (GC 4556)",> 128 µg/mL
same,MIC,"Enterococcus sp.; Enterococcus faecium (GC 4557), read-out: MIC, Enterococcus faecium (GC 4557)",64 µg/mL
same,MIC,"Enterococcus sp.; strain ATCC 29212, read-out: MIC Enterococcus faecalis (ATCC 29212)",> 128 µg/mL
same,MIC,"Enterococcus sp.; strain GC 2242, read-out: MIC Enterococcus faecalis (GC 2242)",> 128 µg/mL
same,MIC,"Enterococcus sp.; strain GC 2243, read-out: MIC Enterococcus faecium (GC 2243)",128 µg/mL
same,MIC,"Enterococcus sp.; strain GC 2691, read-out: MIC Enterococcus faecalis (GC 2691)",> 128 µg/mL
same,MIC,"Enterococcus sp.; strain GC 3059, read-out: MIC Enterococcus faecalis (GC 3059)",> 128 µg/mL
same,MIC,"Enterococcus sp.; strain GC 4552, read-out: MIC Enterococcus faecalis (GC 4552)",> 128 µg/mL
same,MIC,"Enterococcus sp.; strain GC 4553, read-out: MIC Enterococcus faecalis (GC 4553)",> 128 µg/mL
same,MIC,"Enterococcus sp.; strain GC 4554, read-out: MIC Enterococcus faecalis (GC 4554)",> 128 µg/mL
same,MIC,"Enterococcus sp.; strain GC 4556, read-out: MIC Enterococcus faecium (GC 4556)",> 128 µg/mL
same,MIC,"Enterococcus sp.; strain GC 4557, read-out: MIC Enterococcus faecium (GC 4557)",64 µg/mL
same,MIC,"Enterococcus sp.; strain GC 4558, read-out: MIC Enterococcus avium (GC 4558)",128 µg/mL
same,MIC,"Enterococcus sp.; strain GC 6189, read-out: MIC Enterococcus faecalis (GC 6189)",> 128 µg/mL
same,MIC,"Staphylococcus sp.; Staphylococcus, read-out: MIC Coagulase Negative Staphylococcus (GC 4547)",32 µg/mL
same,MIC,"Staphylococcus sp.; Staphylococcus, read-out: MIC Coagulase Negative Staphylococcus (GC 4548)",128 µg/mL
same,MIC,"Staphylococcus sp.; Staphylococcus, read-out: MIC Coagulase Negative Staphylococcus (GC 4549)",32 µg/mL
same,MIC,"Staphylococcus sp.; Staphylococcus, read-out: MIC Coagulase Negative Staphylococcus (GC 4551)",128 µg/mL
same,MIC,"Staphylococcus sp.; Staphylococcus, read-out: MIC Coagulase Negative Staphylococcus (GC 6257)",32 µg/mL
same,MIC,"Staphylococcus sp.; Staphylococcus, read-out: MIC Staphylococcus aureus-SMITH (GC 4543)",64 µg/mL
same,MIC,Staphylococcus sp.; read-out: MIC Staphylococcus aureus (ATCC 29213),128 µg/mL
same,MIC,Staphylococcus sp.; read-out: MIC Staphylococcus aureus (GC 1131),> 128 µg/mL
same,MIC,Staphylococcus sp.; read-out: MIC Staphylococcus aureus (GC 3051),128 µg/mL
same,MIC,Staphylococcus sp.; read-out: MIC Staphylococcus aureus (GC 3053),> 128 µg/mL
same,MIC,Staphylococcus sp.; read-out: MIC Staphylococcus aureus (GC 4541),128 µg/mL
same,MIC,Staphylococcus sp.; read-out: MIC Staphylococcus aureus (GC 4542),128 µg/mL
same,MIC,Staphylococcus sp.; read-out: MIC Staphylococcus aureus (GC 4544),128 µg/mL
same,MIC,Staphylococcus sp.; read-out: MIC Staphylococcus aureus (GC 4545),64 µg/mL
same,MIC,Staphylococcus sp.; read-out: MIC Staphylococcus haemolyticus (GC 4546),32 µg/mL
same,MIC Staphylococcus aureus (ATCC 29213),Staphylococcus sp.; strain ATCC 29213,128 µg/mL
same,MIC Staphylococcus aureus (GC 1131),Staphylococcus sp.; strain GC 1131,>128 µg/mL
same,MIC Staphylococcus aureus (GC 3051),Staphylococcus sp.; strain GC 3051,128 µg/mL
same,MIC Staphylococcus aureus (GC 3053),Staphylococcus sp.; strain GC 3053,>128 µg/mL
same,MIC Staphylococcus aureus (GC 4541),Staphylococcus sp.; strain GC 4541,128 µg/mL
same,MIC Staphylococcus aureus (GC 4542),Staphylococcus sp.; strain GC 4542,128 µg/mL
same,MIC Staphylococcus aureus (GC 4544),Staphylococcus sp.; strain GC 4544,128 µg/mL
same,MIC Staphylococcus aureus (GC 4545),Staphylococcus sp.; strain GC 4545,64 µg/mL
same,MIC Staphylococcus haemolyticus (GC 4546),Staphylococcus sp.; strain GC 4546,32 µg/mL
same,MIC Coagulase Negative Staphylococcus (GC 4547),Staphylococcus sp.; strain GC 4547,32 µg/mL
same,MIC Coagulase Negative Staphylococcus (GC 4548),Staphylococcus sp.; strain GC 4548,128 µg/mL
same,MIC Coagulase Negative Staphylococcus (GC 4549),Staphylococcus sp.; strain GC 4549,32 µg/mL
same,MIC Coagulase Negative Staphylococcus (GC 4551),Staphylococcus sp.; strain GC 4551,128 µg/mL
same,MIC Coagulase Negative Staphylococcus (GC 6257),Staphylococcus sp.; strain GC 6257,32 µg/mL
same,MIC Staphylococcus aureus-SMITH (GC 4543),Staphylococcus sp.; strain SMITH GC 4543,64 µg/mL
same,MIC,"Streptococcus sp.; strain ATCC 6301, read-out: MIC Streptococcus pneumoniae (ATCC 6301)",32 µg/mL
same,MIC,"Streptococcus sp.; strain GC 1894, read-out: MIC Streptococcus pneumoniae (GC 1894)",64 µg/mL
same,MIC,"Streptococcus sp.; strain GC 4563, read-out: MIC Streptococcus pyogenes (GC 4563)",64 µg/mL
same,MIC,"Streptococcus sp.; strain GC 4564, read-out: MIC Streptococcus agalactiae (GC 4564)",128 µg/mL
same,MIC,"Streptococcus sp.; strain GC 4565, read-out: MIC Streptococcus pneumoniae (GC 4565)",128 µg/mL
same,MIC,"[2]; Table 2 section r2574-r2600, column 1, 18 hours at 35° C., read-out: MIC, strain of column 1",128 µg/mL
same,MIC,"[2]; Table 2 section r2574-r2600, column 2, 18 hours at 35° C., read-out: MIC, strain of column 2",64 µg/mL
same,MIC,"[2]; Table 2 section r2574-r2600, column 3, 18 hours at 35° C., read-out: MIC, strain not given",128 µg/mL
same,MIC,"[2]; Table 2 section r2574-r2600, column 5, 18 hours at 35° C., read-out: MIC, strain of column 5",64 µg/mL
same,MIC,"[2]; Table 2 section r2574-r2600, column 7, 18 hours at 35° C., read-out: MIC, strain not given",> 128 µg/mL
same,MIC,"[2]; Table 2 section r2574-r2600, column 9, 18 hours at 35° C., read-out: MIC, strain of column 9",> 128 µg/mL
same,MIC,"[2]; Table 2 section r2574-r2600, column 10, 18 hours at 35° C., read-out: MIC, strain of column 10",> 128 µg/mL
